target: T1, hROMK (hKir1.1) (Homo sapiens, UniProt P48048); test: Thallium Flux Assay (ROMK channel functional thallium flux, FLIPR-Tetra); format: cell-based; conditions: HEK293 cells stably expressing hROMK (hKir1.1); 30 min compound incubation
T1 construct: expressed in transfected cells
T1 sequence (P48048 1-391): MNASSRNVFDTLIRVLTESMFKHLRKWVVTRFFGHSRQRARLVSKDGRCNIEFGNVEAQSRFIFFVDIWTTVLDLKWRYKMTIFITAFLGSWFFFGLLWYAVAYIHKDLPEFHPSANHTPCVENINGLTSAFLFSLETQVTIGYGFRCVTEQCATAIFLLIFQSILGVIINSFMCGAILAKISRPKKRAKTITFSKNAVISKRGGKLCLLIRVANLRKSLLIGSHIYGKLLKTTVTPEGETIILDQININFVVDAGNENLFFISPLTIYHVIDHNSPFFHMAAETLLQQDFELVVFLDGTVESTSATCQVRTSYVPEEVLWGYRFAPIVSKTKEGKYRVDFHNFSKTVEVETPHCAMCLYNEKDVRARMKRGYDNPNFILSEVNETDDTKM
How it was run: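 HEK293 cells stably expressing hKir1.1, loaded with FluxOR dye for 90 min, then preincubated with compound for 30 min at ambient temperature with 0.3 mM ouabain and probenecid. Stimulated with 3 mM thallium/0.3 mM potassium (final); fluorescence read ~10 min. Normalized to 3 μM reference ROMK inhibitor; IC50 from inhibition of flux.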

**Q.** For `CC1=C(N2CCC3(CCN([C@H](CO)Cc4ccc(-n5cnnn5)nc4)CC3)C2=O)COC1=O` (single isomer, unassigned) [Example 296], which IC50 is on record?
**A.** 0.02 µM

**Q.** How did the IC50 turn out when `CC1=C(N2C=CC3(CCN(CCc4ccc(-n5cnnn5)nn4)CC3)C2=O)COC1=O` [Example 247, 2-(4-methyl-5-oxo-2,5-dihydrofuran-3-yl)-1-oxo-8-{2-[6-(1H-tetrazol-1-yl)pyridazin-3-yl]ethyl}-2-aza-8-azoniaspiro[4.5]dec-3-ene] was run?
**A.** 0.02 µM

**Q.** Which IC50 does the source give for `CC1=C(N2CCC3(CC4CCC(C3)N4C[C@@H](O)c3cc(C)c(-n4cnnn4)nn3)C2=O)COC1=O` (stereo partly drawn) [Example 54, (1R,5R)-8-{(2R)-2-hydroxy-2-[5-methyl-6-(1H-tetrazol-1-yl)pyridazin-3-yl]ethyl}-1′-(4-methyl-5-oxo-2,5-dihydrofuran-3-yl)-2′-oxospiro[8-azoniabicyclo[3.2.1]octane-3,3′-pyrrolidine]] here?
**A.** 0.02 µM

**Q.** With `CC1(O)CC2(CCN(C[C@H](O)c3ccc(-n4cnnn4)nn3)CC2)C(=O)N1C1=CC(=O)OC1` (stereo partly drawn) [Example 158, 3-hydroxy-8-{(2S)-2-hydroxy-2-[6-(1H-tetrazol-1-yl)pyridazin-3-yl]ethyl}-3-methyl-1-oxo-2-(5-oxo-2,5-dihydrofuran-3-yl)-2-aza-8-azoniaspiro[4.5]decane] as the molecule, how does the IC50 read?
**A.** 0.56 µM

**Q.** With `C[C@H]1CC2(CCN(CCc3cnc(-n4cnnn4)cn3)CC2)C(=O)N1C1=CC(=O)OC1` [Example 246, 3(S)-methyl-1-oxo-2-(5-oxo-2,5-dihydrofuran-3-yl)-8-{2-[5-(1H-tetrazol-1-yl)pyrazin-2-yl]ethyl}-2-aza-8-azoniaspiro[4.5]decane] as the molecule, how does the IC50 read?
**A.** 0.02 µM

**Q.** Which IC50 does the source give for `CC1=C(N2CCC3(CCN(C[C@@H](O)c4ccc(-n5cnnn5)c(C#N)c4)CC3)C2=O)COC1=O` [Example 96, 8-{(2S)-2-[3-cyano-4-(1H-tetrazol-1-yl)phenyl]-2-hydroxyethyl}-2-(4-methyl-5-oxo-2,5-dihydrofuran-3-yl)-1-oxo-2-aza-8-azoniaspiro[4.5]decane] here?
**A.** 0.07 µM

**Q.** Which IC50 does the source give for `CC1=C(N2C=CC3(CCN(C[C@H](O)c4ccc(-n5cnnn5)nc4)CC3)C2=O)COC1=O` [Example 116, 8-{(2R)-2-hydroxy-2-[6-(1H-tetrazol-1-yl)pyridin-3-yl]ethyl}-2-(4-methyl-5-oxo-2,5-dihydrofuran-3-yl)-1-oxo-2-aza-8-azoniaspiro[4.5]dec-3-ene] here?
**A.** 0.03 µM

**Q.** Which IC50 does the source give for `CC1=C(N2C(=O)C3(CCN(C[C@@H](O)c4ccc(-n5cnnn5)nc4C)CC3)CC2C)COC1=O` (mixture of isomers) [Example 58, 8-{(2S)-2-hydroxy-2-[2-methyl-6-(1H-tetrazol-1-yl)pyridin-3-yl]ethyl}-3-methyl-2-(4-methyl-5-oxo-2,5-dihydrofuran-3-yl)-1-oxo-2-aza-8-azoniaspiro[4.5]decane] here?
**A.** 0.06 µM

**Q.** Which IC50 does the source give for `COc1cc(-n2cnnn2)ccc1[C@H](O)CN1CCC2(CC1)CCN(C1=CC(=O)OC1)C2=O` [Example 16, 8-{(2S)-2-hydroxy-2-[2-methoxy-4-(1H-tetrazol-1-yl)phenyl]ethyl}-1-oxo-2-(5-oxo-2,5-dihydrofuran-3-yl)-2-aza-8-azoniaspiro[4.5]decane] here?
**A.** 0.02 µM

**Q.** With `CC1=C(N2C=CC3(CCN(CCc4nnc(-n5cnnn5)cc4C)CC3)C2=O)COC1=O` [Example 248, 2-(4-methyl-5-oxo-2,5-dihydrofuran-3-yl)-8-{2-[4-methyl-6-(1H-tetrazol-1-yl)pyridazin-3-yl]ethyl}-1-oxo-2-aza-8-azoniaspiro[4.5]dec-3-ene] as the molecule, how does the IC50 read?
**A.** 0.02 µM

**Q.** For `C[C@@H]1CC2(CCN(C[C@@H](O)c3cnc(-n4cnnn4)cn3)CC2)C(=O)N1C1=CC(=O)OC1` [Example 80, (3R)-8-{(2R)-2-hydroxy-2-[5-(1H-tetrazol-1-yl)pyrazin-2-yl]ethyl}-3-methyl-1-oxo-2-(5-oxo-2,5-dihydrofuran-3-yl)-2-aza-8-azoniaspiro[4.5]decane], which IC50 is on record?
**A.** 0.13 µM

**Q.** How did the IC50 turn out when `CC1=C(N2CCC3(CCN(C[C@H](O)c4nnc(-n5cnnn5)cc4C)CC3F)C2=O)COC1=O` (single isomer, unassigned) [Example 198] was run?
**A.** 0.01 µM

**Q.** How did the IC50 turn out when `CC1=C(N2CC(O)C3(CCN(CCc4ccc(-n5cnnn5)nc4)CC3)C2=O)COC1=O` (single isomer, unassigned) [Example 244, 4-hydroxy-2-(4-methyl-5-oxo-2,5-dihydrofuran-3-yl)-1-oxo-8-{2-[6-(1H-tetrazol-1-yl)pyridin-3-yl]ethyl}-2-aza-8-azoniaspiro[4.5]decane] was run?
**A.** 0.03 µM

**Q.** For `COC1CN(C2=CC(=O)OC2)C(=O)C12CCN(C[C@H](O)c1ccc(-n3cnnn3)nc1)CC2` (mixture of isomers) [Example 206, 8-((R)-2-(6-(1H-tetrazol-1-yl)pyridin-3-yl)-2-hydroxyethyl)-4-methoxy-2-(5-oxo-2,5-dihydrofuran-3-yl)-2,8-diazaspiro[4.5]decan-1-one], which IC50 is on record?
**A.** 0.05 µM

**Q.** Which IC50 does the source give for `CC1=C(N2CCC3(CCN(C[C@H](O)c4cnc(-n5cnnn5)nc4)CC3)C2=O)COC1=O` [Example 17, 8-{(2R)-2-hydroxy-2-[2-(1H-tetrazol-1-yl)pyrimidin-5-yl]ethyl}-2-(4-methyl-5-oxo-2,5-dihydrofuran-3-yl)-1-oxo-2-aza-8-azoniaspiro[4.5]decane] here?
**A.** 0.03 µM

**Q.** How did the IC50 turn out when `COC1CN(C2=C(C)C(=O)OC2)C(=O)C12CC1CCC(C2)N1C[C@H](O)c1cnc(-n2cnnn2)cn1` (single isomer, unassigned) [Example 160] was run?
**A.** 0.11 µM
